Data as given in patent publication US20260240872A1, “COMBINATION OF METFORMIN AND GLIBENCLAMIDE IN THE TREATMENT OF PARKINSON'S DISEASE” (CXS THERAPEUTICS, priority 2023, published 2026).

B1: BDNF: Brain Derived Neurotrophic factor, used as reference compound (positive control) at 50 ng/ml (protein, UniProt P23560 19-247, looked up)
Neurotrophic factor BDNF …: APMKEANIRGQGGLAYPGVRTHGTLESVNGPKAGSRGLTSLADTFEHVIEELLDEDQKVRPNEENNKDADLYTSRVMLSSQVPLEPPLLFLLEEYKNYLDAANMSMRVRRHSDPARRGELSVCDSISEWVTAADKKTAVDMSGGTVTVLEKVPVSKGQLKQYFYETKCNPMGYTKEGCRGIDKRHWNSQCRTTQSYVRALTMDSKKRIGWRFIRIDTSCVCTLTIKRGR

Key:
Type in all cases: cell-based
[1] = system: rat primary dopaminergic neurons; experiment: Example 2: 6-OHDA injury, protective protocol, total number of TH positive neurons (dopaminergic neurons survival); settings: for cellular death (decrease of dopaminergic neurons survival): 48 hours; for cellular death / protection of dopaminergic neurons from cell death induced by 6-OHDA: one-hour pre-treatment; for cellular death: 6-OHDA 20 μM 48 hours, Plate 1, not significant; for protection of dopaminergic neurons from cell death induced by 6-OHDA: compound alone, 6-OHDA 48 hours, conclusion; for dopaminergic neurons survival: BDNF 50 ng/ml + 6-OHDA 20 μM 48 hours
Protocol: (§1) The total number and the neurites length of dopaminergic neurons was assessed.
(§2) Rat mesencephalic neurons were cultured as described by Schinelli et al., 1988. Briefly pregnant female rats of 15 days gestation were killed by cervical dislocation (Rats Wistar; Janvier Lab) and the fetuses removed from the uterus. The embryonic midbrains were removed and placed in ice-cold medium of Leibovitz 15 (L15; PanBiotech, Ref P04-27055, Batch: 1260323) containing 2% of Penicillin-Streptomycin (PS; PanBiotech, ref: P06-07100, Batch: 2585615) and 1% of bovine serum albumin (BSA; Sigma, Ref: 810533, Batch: 73). Only the ventral portions of the mesencephalic flexure were used for the cell preparation as this region of the developing brain is enriched in dopaminergic neurons. The midbrains were dissociated by […] for 20 minutes (min) at 37° C. (Trypsin EDTA 1×; PanBiotech, Ref: P10-023100, Batch: 8290223). The reaction was stopped by the addition of Dulbecco's modified Eagles medium (DMEM; PanBiotech, Ref: P04-03600, Batch: 6041222) containing Dnase | grade II (0.1 mg/ml; PanBiotech, Ref: P60-37780100, Batch: H210916) and 10% of fetal calf serum (FCS; Invitrogen, Ref: 10270106, Batch: 2534381). Cells were then mechanically dissociated by 3 passages through a 10 mL pipette. Cells were then centrifuged at 180×g for 10 min at +4° C. on a layer of BSA (3.5%) in L15 medium. The supernatant was discarded and the cell pellets were resuspended in a defined culture medium consisting of Neurobasal Plus (Gibco, Ref: A3582901, Batch: 2537248) supplemented with 2% of B27 Plus (Gibco, ref: A3582801, Batch: 2722550), L-glutamine (2 mM; PanBiotech, Ref: P04-80100, Batch: 7061121), 2% of PS, 10 ng/ml of BDNF PeproTech, Ref: 450-02, Batch: 092361) and 1 ng/ml of Glial Derived Neurotrophic factor (GDNF; PeproTech, Ref: 450-10, Batch: 012364). Viable cells were then counted in a Neubauer cytometer using the trypan blue exclusion test. The cells were seeded at a density of 40 000 cells/well in 96 well-plates coated with poly-L-Ornithine (Sigma, Ref: P4957, Batch: RNBL6953) and laminin (Sigma, Ref: L2020, Batch: 0000216258), and were cultured at 37° C. in a humidified air (95%)/CO2 (5%) atmosphere. Half of the medium was changed every 2 days with fresh medium. In these conditions, after 5 days of culture, astrocytes are present in the culture and release growth factor allowing neurons differentiation. In this condition, 2 to 5% of neurons are dopaminergic neurons.
(§3) Briefly, 6-OHDA (Sigma, Ref: H4381, Batch: MKCQ5002) was reconstituted in define culture medium at 40 μM (stock solution). The control medium was prepared in the same conditions. After 7 days of culture, primary mesencephalic neurons were pre-treated for 1 hour with test compounds or reference compound (BDNF, 50 ng/ml) and then intoxicated with 6-OHDA at a final concentration of 20 μM for 2 days incubation in order to induce a neuronal cell death of about 40%. The following conditions were done:
(§4) After 2 days of intoxication, cells were fixed by a solution of 4% paraformaldehyde (Alpha Aesar, ref J19943, Batch: 211457) for 20 min at room temperature, the control conditions were fixed as well following the same procedure. The cells were then permeabilized and non-specific sites were blocked with a solution of phosphate buffered saline (PBS; VWR; ref: L0615-500, Batch: MS01 MB) containing 0.1% of saponin (Sigma; ref: S7900, Batch: BCBL8667V) and 1% FCS for 15 min at room temperature. Cells were incubated with a rabbit polyclonal anti-Tyrosine Hydroxylase antibody (TH, 1/1000, Sigma, ref: AB152, Batch: 3870479) in a solution of PBS overnight at 4° C.
(§5) Nuclei of cells were labelled by a fluorescent marker (Hoechst, Sigma; ref: B1155, Batch: 046M4048V) in the same solution.
(§6) For each condition, 20 pictures per well were taken using InCell Analyzer™ 2200 (GE Healthcare) with 20× magnification. Images of each culture well were taken in same condition.

[2] = system: rat primary dopaminergic neurons; experiment: Example 2: 6-OHDA injury, protective protocol, length of TH positive neurites; settings: for neurites loss (decrease of neurites length): 6-OHDA 20 μM, 48 hours; for neurites loss / protection of neurites from damages induced by 6-OHDA: one-hour pre-treatment, 6-OHDA 48 hours; for neurites loss: Plate 1, not significant; for protection of neurites from damages induced by 6-OHDA: compound alone, conclusion; for neurites length: p<0.05
Protocol: as §1, §2, §3, §4, §5, §6

[3] = system: rat primary dopaminergic neurons; experiment: Example 1: 6OH-DA injury on rat primary mesencephalic culture, number of TH positive dopaminergic neurons (survival/viability); settings: FIG. 1
[4] = system: rat primary dopaminergic neurons; experiment: Example 1: 6OH-DA injury on rat primary mesencephalic culture, neurite length (fitness) of dopaminergic neurons; settings: compound alone; as compared to Brain Derived Neurotrophic Factor; FIG. 2
Text: In these conditions, after 5 days of culture, astrocytes are present in the culture and release growth factor allowing neurons differentiation.

Molecule | cellular death ([1]; compound alone at 1 μM) | cellular death ([1]; compound alone at 3 μM) | cellular death ([1]; compound alone at 10 μM) | protection of dopaminergic neurons from cell death induced by 6-OHDA [1] | neurites loss ([2]; compound alone at 1 μM) | neurites loss ([2]; compound alone at 3 μM) | neurites loss ([2]; compound alone at 10 μM) | protection of neurites from damages induced by 6-OHDA [2] | further results
NCCc1cc(O)c(O)cc1O [6-OHDA, 6-hydroxydopamine] | – | – | – | – | – | – | – | – | cellular death (decrease of dopaminergic neurons survival) ([1]; 20 μM, Plate 2, FIG. 7, p<0.0001): 55%; cellular death (decrease of dopaminergic neurons survival) ([1]; 6-OHDA 20 μM, Plate 1, FIG. 6, p<0.0001): 54%; cellular death (decrease of dopaminergic neurons survival) ([1]; 6-OHDA 20 μM, Plate 3, FIG. 8, p<0.001): 46%; neurites loss (decrease of neurites length) ([2]; Plate 1, FIG. 9, p<0.001): 54%; neurites loss (decrease of neurites length) ([2]; Plate 2, FIG. 10, p<0.0001): 56%; neurites loss (decrease of neurites length) ([2]; Plate 3, FIG. 11, p<0.001): 45%
CN(C)C(=N)NC(=N)N [CXS001, 1,1-dimethylbiguanide] | 43% | 44% | 51% | does not protect | 38% | 43% | 55% | does not protect | –
COc1ccc(Cl)cc1C(=O)NCCc1ccc(S(=O)(=O)NC(=O)NC2CCCCC2)cc1 [CXS002, Glibenclamide] | 58% | 57% | 47% | does not protect | 58% | 57% | 47% | does not protect | neuron viability ([3]; at high concentration, 6OHDA intoxication): seems to decrease neuron viability; dopaminergic neuron survival in 6OHDA intoxication ([3]; compound alone, as compared to Brain Derived Neurotrophic Factor): did not improve dopaminergic neuron survival; dopaminergic neuron fitness (neurite length) in 6OHDA intoxication [4]: did not improve dopaminergic neuron fitness
B1 | – | – | – | – | – | – | – | – | dopaminergic neurons survival ([1]; Plate 1, FIG. 6, p<0.05): 81 % of the control; dopaminergic neurons survival ([1]; Plate 2, FIG. 7, p<0.0001): 87 % of the control; dopaminergic neurons survival ([1]; Plate 3, FIG. 8, p<0.05): 83 % of the control; neurites length ([2]; BDNF 50 ng/mL + 6-OHDA 20 μM 48 hours, Plate 1, FIG. 9): 79 % of the control; neurites length ([2]; BDNF 50 ng/ml + 6-OHDA 20 μM 48 hours, Plate 2, FIG. 10): 76 % of the control; neurites length ([2]; BDNF 50 ng/ml + 6-OHDA 20 μM 48 hours, Plate 3, FIG. 11): 85 % of the control
